In ChEMBL document CHEMBL1212811, “Chemical phylogenetics of histone deacetylases” (Nat Chem Biol, 2010):

Assays:
Histone deacetylase 1 = Histone deacetylase 1 (Homo sapiens, UniProt Q13547)
Histone deacetylase 4 = Histone deacetylase 4 (Homo sapiens, UniProt P56524)
Histone deacetylase 5 = Histone deacetylase 5 (Homo sapiens, UniProt Q9UQL6)
Histone deacetylase 9 = Histone deacetylase 9 (Homo sapiens, UniProt Q9UKV0)
[1] = molecular target: T1, Protein deacetylase HDAC6 (Homo sapiens, UniProt Q9UBN7)
T1 sequence (Q9UBN7 whole entry): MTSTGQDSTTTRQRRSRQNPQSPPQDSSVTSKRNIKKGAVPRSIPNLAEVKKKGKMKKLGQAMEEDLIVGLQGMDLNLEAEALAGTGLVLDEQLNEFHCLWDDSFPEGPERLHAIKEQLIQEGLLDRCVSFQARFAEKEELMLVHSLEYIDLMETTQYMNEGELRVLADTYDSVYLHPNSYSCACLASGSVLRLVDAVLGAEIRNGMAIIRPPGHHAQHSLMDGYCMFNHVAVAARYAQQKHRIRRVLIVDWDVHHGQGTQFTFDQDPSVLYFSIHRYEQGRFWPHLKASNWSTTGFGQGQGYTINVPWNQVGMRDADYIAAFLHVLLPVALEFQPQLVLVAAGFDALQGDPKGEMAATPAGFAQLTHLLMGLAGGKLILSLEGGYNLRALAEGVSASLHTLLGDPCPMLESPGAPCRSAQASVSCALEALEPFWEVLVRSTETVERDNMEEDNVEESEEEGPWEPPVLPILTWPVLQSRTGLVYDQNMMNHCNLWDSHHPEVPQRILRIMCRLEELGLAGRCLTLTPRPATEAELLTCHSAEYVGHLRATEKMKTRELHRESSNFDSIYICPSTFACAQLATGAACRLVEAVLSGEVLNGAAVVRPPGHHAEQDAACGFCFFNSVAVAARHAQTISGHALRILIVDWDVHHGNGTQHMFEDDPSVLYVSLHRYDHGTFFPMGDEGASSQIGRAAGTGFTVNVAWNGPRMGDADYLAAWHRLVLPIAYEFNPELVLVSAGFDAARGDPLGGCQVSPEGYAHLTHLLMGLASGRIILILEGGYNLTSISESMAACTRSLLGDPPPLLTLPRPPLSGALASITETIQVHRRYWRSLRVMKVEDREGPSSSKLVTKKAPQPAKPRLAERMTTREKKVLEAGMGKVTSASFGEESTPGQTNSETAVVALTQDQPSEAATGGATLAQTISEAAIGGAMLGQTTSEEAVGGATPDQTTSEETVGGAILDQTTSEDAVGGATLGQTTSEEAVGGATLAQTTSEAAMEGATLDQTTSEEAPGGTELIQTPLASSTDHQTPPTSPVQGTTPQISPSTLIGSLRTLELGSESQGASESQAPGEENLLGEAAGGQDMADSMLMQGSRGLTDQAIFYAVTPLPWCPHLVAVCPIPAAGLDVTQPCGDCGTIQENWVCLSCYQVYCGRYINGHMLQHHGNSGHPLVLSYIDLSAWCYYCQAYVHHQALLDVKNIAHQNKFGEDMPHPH

Histone deacetylase 8 = molecular target: T2, Histone deacetylase 8 (Homo sapiens, UniProt Q9BY41)
T2 sequence (Q9BY41 whole entry): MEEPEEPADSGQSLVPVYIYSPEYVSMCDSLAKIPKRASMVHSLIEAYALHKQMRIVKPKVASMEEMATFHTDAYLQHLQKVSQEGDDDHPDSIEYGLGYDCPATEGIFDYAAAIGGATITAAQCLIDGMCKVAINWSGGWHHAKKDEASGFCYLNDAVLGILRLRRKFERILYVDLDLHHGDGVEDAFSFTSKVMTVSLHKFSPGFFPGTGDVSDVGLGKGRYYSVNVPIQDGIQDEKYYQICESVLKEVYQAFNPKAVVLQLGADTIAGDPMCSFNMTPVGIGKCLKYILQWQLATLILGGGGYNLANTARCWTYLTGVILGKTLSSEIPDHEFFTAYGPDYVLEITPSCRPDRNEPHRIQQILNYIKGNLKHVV

Histone deacetylase 7 = molecular target: T3, Histone deacetylase 7 (Homo sapiens, UniProt Q8WUI4)
T3 sequence (Q8WUI4 whole entry): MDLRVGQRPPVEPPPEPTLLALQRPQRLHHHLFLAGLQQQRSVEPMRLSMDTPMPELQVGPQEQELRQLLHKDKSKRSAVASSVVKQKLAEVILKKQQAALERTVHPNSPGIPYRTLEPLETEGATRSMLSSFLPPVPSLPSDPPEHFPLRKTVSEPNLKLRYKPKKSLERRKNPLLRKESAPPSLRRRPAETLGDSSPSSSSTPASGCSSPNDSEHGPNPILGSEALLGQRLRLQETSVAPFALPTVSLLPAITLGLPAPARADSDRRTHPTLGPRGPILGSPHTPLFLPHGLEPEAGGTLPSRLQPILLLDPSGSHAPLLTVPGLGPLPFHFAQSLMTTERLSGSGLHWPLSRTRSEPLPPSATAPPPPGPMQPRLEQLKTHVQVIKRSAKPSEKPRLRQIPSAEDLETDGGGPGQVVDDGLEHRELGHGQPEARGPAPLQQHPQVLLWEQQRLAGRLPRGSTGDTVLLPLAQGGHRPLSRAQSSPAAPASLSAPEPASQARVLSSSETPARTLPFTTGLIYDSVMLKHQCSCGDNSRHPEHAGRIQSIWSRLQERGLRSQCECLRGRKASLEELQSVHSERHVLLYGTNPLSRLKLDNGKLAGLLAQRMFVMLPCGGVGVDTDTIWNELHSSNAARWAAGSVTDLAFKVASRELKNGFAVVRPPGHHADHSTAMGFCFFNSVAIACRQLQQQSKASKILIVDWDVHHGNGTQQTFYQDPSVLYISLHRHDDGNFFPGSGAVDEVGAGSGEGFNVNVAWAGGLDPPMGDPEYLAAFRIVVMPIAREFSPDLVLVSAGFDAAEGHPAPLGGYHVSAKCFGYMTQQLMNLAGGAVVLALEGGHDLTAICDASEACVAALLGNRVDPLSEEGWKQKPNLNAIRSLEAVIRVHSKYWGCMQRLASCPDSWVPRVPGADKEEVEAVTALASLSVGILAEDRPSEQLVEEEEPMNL

Histone deacetylase 3 = Histone deacetylase 3 (Homo sapiens, UniProt O15379)
Sequence of Histone deacetylase 3 (O15379 whole entry): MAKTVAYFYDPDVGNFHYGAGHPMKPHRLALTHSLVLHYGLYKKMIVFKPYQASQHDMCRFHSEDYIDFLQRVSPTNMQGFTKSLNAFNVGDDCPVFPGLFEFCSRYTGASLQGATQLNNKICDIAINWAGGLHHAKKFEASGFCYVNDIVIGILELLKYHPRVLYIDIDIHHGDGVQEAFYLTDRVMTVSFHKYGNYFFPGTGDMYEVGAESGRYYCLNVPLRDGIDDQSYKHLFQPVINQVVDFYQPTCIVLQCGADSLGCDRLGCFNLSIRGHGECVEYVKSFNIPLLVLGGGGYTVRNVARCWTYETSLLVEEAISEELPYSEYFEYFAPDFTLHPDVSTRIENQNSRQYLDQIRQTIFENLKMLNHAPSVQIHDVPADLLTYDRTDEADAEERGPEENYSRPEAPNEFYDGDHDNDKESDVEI

Histone deacetylase 2 = Histone deacetylase 2 (Homo sapiens, UniProt Q92769)
Sequence of Histone deacetylase 2 (Q92769 whole entry): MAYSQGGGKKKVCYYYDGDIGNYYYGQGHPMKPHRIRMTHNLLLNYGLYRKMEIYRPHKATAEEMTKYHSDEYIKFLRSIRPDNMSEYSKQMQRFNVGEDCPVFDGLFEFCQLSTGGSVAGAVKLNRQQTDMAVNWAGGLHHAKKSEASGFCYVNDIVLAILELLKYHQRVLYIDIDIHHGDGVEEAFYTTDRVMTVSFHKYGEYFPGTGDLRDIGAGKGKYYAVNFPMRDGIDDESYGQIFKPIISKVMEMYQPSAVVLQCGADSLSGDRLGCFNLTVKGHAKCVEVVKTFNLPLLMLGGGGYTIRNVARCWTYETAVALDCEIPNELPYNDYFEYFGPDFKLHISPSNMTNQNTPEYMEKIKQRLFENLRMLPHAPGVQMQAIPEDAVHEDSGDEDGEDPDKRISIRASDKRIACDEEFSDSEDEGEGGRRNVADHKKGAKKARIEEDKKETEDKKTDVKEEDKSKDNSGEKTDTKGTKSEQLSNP

Sequence of Histone deacetylase 9 (Q9UKV0 whole entry): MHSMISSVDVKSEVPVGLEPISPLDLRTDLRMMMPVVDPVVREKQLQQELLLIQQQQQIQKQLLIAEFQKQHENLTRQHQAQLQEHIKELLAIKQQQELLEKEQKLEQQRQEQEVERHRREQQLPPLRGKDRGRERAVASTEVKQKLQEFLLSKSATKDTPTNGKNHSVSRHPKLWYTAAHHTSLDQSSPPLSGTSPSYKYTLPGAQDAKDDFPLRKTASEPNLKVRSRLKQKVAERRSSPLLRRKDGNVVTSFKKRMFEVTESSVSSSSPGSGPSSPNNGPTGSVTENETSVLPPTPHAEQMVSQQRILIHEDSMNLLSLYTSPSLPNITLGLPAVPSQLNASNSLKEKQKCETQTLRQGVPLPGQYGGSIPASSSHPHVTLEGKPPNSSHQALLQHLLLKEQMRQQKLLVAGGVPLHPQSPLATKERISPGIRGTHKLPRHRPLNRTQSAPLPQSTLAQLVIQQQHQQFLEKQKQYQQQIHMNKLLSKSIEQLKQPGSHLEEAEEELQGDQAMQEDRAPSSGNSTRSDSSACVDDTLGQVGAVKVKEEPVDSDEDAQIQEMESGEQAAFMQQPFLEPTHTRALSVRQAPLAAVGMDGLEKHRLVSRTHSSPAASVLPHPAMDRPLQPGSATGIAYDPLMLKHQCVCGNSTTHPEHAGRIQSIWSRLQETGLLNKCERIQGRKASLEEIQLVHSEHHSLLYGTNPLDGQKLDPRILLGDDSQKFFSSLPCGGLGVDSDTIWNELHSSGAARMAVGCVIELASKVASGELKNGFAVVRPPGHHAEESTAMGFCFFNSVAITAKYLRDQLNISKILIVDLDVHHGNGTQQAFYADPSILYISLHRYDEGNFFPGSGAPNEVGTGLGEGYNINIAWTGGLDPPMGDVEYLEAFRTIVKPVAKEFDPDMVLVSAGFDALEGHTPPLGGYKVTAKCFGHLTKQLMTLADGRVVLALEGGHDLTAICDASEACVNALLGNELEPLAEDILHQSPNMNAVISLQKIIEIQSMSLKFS
Sequence of Histone deacetylase 5 (Q9UQL6 whole entry): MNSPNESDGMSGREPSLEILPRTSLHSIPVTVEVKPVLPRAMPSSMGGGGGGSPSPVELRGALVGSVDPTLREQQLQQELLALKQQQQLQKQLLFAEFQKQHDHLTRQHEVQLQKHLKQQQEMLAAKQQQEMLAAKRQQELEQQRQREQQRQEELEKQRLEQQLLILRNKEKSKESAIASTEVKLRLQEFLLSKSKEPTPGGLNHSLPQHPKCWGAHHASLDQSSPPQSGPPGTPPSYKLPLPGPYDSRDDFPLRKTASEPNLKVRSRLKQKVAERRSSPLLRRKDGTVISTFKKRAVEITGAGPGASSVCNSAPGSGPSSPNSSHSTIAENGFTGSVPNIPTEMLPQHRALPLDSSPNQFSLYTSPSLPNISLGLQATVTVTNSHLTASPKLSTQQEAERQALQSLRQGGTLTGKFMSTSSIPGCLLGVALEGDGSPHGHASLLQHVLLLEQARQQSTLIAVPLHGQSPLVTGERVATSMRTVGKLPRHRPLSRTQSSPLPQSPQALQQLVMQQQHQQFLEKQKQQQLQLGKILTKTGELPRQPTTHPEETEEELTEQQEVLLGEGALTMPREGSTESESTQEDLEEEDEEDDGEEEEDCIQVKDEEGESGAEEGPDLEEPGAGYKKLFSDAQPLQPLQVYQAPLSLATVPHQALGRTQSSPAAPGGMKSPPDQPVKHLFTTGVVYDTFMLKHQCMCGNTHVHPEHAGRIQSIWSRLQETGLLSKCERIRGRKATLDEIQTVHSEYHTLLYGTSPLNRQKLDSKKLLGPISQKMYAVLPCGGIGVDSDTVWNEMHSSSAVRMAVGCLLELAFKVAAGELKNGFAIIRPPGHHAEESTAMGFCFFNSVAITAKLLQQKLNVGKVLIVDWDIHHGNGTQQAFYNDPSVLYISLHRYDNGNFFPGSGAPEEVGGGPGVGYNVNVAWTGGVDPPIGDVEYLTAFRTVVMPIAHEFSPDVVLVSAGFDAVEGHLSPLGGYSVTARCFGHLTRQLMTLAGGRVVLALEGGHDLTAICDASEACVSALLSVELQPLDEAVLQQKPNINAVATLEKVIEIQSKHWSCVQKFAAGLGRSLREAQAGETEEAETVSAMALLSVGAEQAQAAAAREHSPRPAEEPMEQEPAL
Sequence of Histone deacetylase 4 (P56524 whole entry): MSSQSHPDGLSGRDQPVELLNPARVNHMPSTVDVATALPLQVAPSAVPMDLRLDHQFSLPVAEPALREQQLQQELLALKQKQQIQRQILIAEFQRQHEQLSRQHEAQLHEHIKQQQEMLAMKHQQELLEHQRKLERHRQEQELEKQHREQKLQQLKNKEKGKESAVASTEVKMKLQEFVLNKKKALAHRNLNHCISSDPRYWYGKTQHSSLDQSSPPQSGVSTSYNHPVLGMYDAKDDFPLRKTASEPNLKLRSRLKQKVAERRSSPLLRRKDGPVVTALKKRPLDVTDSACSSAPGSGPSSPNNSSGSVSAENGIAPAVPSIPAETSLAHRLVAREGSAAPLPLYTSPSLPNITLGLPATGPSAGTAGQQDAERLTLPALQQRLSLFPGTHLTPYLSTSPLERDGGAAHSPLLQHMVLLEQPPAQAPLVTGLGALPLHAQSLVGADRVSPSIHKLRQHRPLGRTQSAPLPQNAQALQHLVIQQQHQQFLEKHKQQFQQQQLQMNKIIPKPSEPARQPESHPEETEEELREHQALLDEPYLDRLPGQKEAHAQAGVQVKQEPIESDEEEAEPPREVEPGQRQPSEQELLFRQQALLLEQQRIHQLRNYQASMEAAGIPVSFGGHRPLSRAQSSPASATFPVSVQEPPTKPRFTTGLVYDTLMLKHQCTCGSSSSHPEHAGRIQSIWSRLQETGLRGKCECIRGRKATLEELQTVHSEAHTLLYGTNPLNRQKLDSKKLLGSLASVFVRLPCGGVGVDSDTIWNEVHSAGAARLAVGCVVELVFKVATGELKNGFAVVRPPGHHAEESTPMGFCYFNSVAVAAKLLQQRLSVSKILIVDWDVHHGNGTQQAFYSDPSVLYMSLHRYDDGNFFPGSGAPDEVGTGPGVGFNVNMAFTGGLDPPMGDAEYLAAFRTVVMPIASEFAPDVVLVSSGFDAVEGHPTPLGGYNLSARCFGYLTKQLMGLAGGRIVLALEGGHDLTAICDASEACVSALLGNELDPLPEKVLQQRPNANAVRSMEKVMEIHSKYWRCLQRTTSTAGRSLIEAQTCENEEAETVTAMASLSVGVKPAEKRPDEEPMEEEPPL
Sequence of Histone deacetylase 1 (Q13547 whole entry): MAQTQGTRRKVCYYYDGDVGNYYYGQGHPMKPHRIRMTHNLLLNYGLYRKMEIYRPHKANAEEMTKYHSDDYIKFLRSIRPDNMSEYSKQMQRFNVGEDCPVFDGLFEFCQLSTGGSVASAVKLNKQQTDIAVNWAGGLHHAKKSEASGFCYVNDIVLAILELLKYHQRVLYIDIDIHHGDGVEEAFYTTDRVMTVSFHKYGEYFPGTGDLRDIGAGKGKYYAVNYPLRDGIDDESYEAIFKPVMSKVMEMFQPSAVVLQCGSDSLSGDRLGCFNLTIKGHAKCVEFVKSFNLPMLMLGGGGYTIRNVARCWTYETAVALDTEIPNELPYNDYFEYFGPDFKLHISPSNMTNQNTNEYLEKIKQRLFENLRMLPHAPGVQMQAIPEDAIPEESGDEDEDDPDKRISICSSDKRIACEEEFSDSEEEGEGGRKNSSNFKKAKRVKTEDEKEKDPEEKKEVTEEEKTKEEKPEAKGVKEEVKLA

| SMILES | Ki (Histone deacetylase 1) [nM] | Ki (Histone deacetylase 4) [nM] | Ki (Histone deacetylase 5) [nM] | Ki (Histone deacetylase 9) [nM] | Ki [1] [nM] | Ki (Histone deacetylase 8) [nM] | Ki (Histone deacetylase 7) [nM] | Ki (Histone deacetylase 3) [nM] | Ki (Histone deacetylase 2) [nM] |
| --- | --- | --- | --- | --- | --- | --- | --- | --- | --- |
| C/C=C1\NC(=O)[C@H]2CSSCC/C=C/[C@H](CC(=O)N[C@H](C(C)C)C(=O)N2)OC(=O)[C@H](C(C)C)NC1=O [ROMIDEPSIN] | 0.0015 |  |  |  |  |  |  |  |  |
| CCN(CC)Cc1ccc2cc(COC(=O)Nc3ccc(C(=O)NO)cc3)ccc2c1 [GIVINOSTAT] |  | 1050 | 600 | 390 |  |  |  |  |  |
| O=C(O)CCCCCCC(=O)Nc1ccc([C@H]2O[C@@H](CSc3nc(-c4ccccc4)c(-c4ccccc4)o3)C[C@@H](c3ccc(CO)cc3)O2)cc1 [NILTUBACIN] |  |  |  |  | 2200 | 750 |  |  |  |
| O=C(/C=C/c1ccc(C(=O)N/N=C/c2ccc(O)c(O)c2O)cc1)NO | 120 | 950 | 180 | 1400 | 32 | 50 | 1100 | 120 | 70 |
| C=C[C@@H](O)[C@@H]1O[C@H]1/C=C/[C@@H]1O[C@H]1[C@@H](C)O [DEPUDECIN] | 5500 |  |  |  |  |  |  | 14500 | 12500 |
| O=C(/C=C/c1cccc(S(=O)(=O)Nc2ccccc2)c1)NO [BELINOSTAT] |  | 380 |  |  | 1.6 |  |  |  |  |
| O=C(CCCc1ccccc1)NO [PHENYLBUTYRYLHYDROXAMIC ACID] |  |  | 16000 |  | 150 | 1850 |  |  | 430 |
| O=C(CCCCCCC(=O)Nc1cccnc1)NO [PYROXAMIDE] |  |  | 4750 |  | 4.8 | 1000 |  | 8 | 36000 |
| O=C(CCCCCCC(=O)NO)NO [SUBEROHYDROXAMIC ACID] |  |  | 9500 |  | 14.5 |  |  | 125 |  |
| Cn1c(/C=C/C(=O)NO)ccc1C(=O)Cc1ccccc1 | 55 | 17500 | 11500 | 10000 | 30 | 600 | 7000 | 250 | 125 |
